{"source": "patent US10836789B2", "about": "“Inhibitors of glucocorticoid receptor” (ORIC Pharmaceuticals, Inc., priority 2016, dated 2020)", "key": {"GR": {"molecular_target": "T1, GR (Homo sapiens, UniProt P04150)", "T1 construct": "expressed in transfected cells; host or cells: CHO cells carrying GR and an MMTV-luciferase reporter", "T1 sequence (P04150 1-777)": "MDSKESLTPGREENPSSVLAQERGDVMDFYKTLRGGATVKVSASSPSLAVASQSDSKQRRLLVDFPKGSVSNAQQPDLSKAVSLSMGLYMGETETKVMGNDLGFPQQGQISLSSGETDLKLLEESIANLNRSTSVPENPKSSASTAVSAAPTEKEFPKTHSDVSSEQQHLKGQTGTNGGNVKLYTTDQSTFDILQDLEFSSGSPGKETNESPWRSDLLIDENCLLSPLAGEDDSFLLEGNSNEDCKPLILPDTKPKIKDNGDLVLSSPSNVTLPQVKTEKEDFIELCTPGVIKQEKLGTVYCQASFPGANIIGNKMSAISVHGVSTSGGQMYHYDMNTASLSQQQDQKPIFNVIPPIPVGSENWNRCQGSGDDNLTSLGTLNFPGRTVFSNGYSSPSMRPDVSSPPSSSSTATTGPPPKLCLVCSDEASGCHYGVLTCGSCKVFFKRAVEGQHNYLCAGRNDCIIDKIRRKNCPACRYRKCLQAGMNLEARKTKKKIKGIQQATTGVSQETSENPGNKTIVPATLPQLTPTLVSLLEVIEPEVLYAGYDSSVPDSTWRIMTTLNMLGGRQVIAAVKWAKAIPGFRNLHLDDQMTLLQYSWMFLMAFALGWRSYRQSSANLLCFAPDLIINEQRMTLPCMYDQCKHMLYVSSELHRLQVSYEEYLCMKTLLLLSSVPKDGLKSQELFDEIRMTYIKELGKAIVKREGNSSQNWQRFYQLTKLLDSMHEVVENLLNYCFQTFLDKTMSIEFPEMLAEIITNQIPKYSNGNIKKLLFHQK", "assay": "GR luciferase antagonist assay (CHO/GR/MMTV Luciferase cells)", "type": "cell-based", "conditions": "10 nM Dexamethasone final, 16-18 h", "description": "Example A: […] GR Luciferase Assay Cell Line: CHO/GR/MMTV Luciferase Culture Media: DMEM (with phenol red)+10% FBS Assay Media: DMEM (without phenol red)+10% CSS A 1×10 cm plate of cells was split into 2×15 cm plates in Assay Media (CSS). After 4 days, the cells in the Assay Media were collected and counted. Antagonist Assay: 1.5×10^4 cells per well were plated in a 384-well white walled TC plate in 20 ul of Assay Media containing 12.5 nM Dexamethasone (final concentration=10 nM). The plates were covered with film to avoid evaporation and placed in a TC incubator. Media/drug dilutions were prepared in Assay Media in 96-well sterile plates. 100 ul of Assay Media was distributed in aliquots into 96-well plates with an 8-Channel pipette (20-200 ul). 0.5 ul of 1000× concentration of compounds were added to the plates with 8-Channel pipette (0.5-10 ul). The plates were shaken for 15 seconds to mix. The film was removed from the 384-well plates with assay cells. 5 ul of media/drug dilutions were added to appropriate wells. The plates were covered with film to avoid evaporation and placed in a TC incubator overnight. After 16-18 h in the incubator, the plates were removed and sat at room temperature for 10 minutes to equilibrate. The Reagent Dispenser was setup to distribute 25 ul aliquots of OneGlo Luciferase Reagent (at room temperature) to each well of the 384-well plate using standard cassette. After OneGlo was added to the plates, the plates were shaken briefly, then incubated in the dark at room temperature for about 3 minutes. The plates were read using a Tecan or Promega luminometer. The ability of the compounds disclosed herein to inhibit GR activity was quantified and the respective IC50 value was determined. Table 3 provides the cellular IC50 values of various substituted steroidal compounds disclosed herein."}, "AR": {"test_system": "AR", "assay": "AR agonism assay in LNAR reporter cell line", "type": "cell-based", "conditions": "LNAR cells (overexpressed AR, 4XARE-Luc), 10% CSS, 18-24 hrs; Mifepristone maximum response set to 1", "description": "Example B: In Vitro AR Agonism Assay\nThe AR agonism assay was done in the LNAR reporter cell line which has overexpressed AR and 4XARE-Luc genes. This cell line is sensitive to even minor partial AR agonism activity in hormone-deprived media (CSS). The assays were done in RPMI (without phenol red)+10% CSS using 6000 LNAR cells/well in 384-well plates and compounds were incubated with cells in […] incubator for 18-24 hrs. OneGlo reagent (25 uL/well) was added and plates were read with luminometer within 3 minutes.\nTo gauge the AR partial agonism activity, Mifepristone is included as a standard in the assay. AR agonism assay results are quantified by determining the ratio of the maximum response of individual compounds to the maximum response of Mifepristone (arbitrarily set to 1). Values of Table 4 are reported as Relative Maximum Response to Mifepristone. This general trend of AR agonism was shown for the class of compounds described herein."}}, "data": [{"compound": "CC(C)N(C)c1ccc([C@H]2C[C@@]3(C)[C@@H](CC[C@@]3(O)C#CC(C)(C)C)[C@@H]3CCC4=CC(=O)CC[C@@H]4[C@H]32)cc1", "note": "[Compound 2, (8R,9S,10R,11S,13S,14S,17S)-17-(3,3-Dimethylbut-1-yn-1-yl)-17-hydroxy-11-(4-(isopropyl(methyl)amino)phenyl)-13-methyl-1,2,6,7,8,9,10,11,12,13,14,15,16,17-tetradecahydro-3H-cyclopenta[a]phenanthren-3-one]", "values": [{"measurement": "IC50", "setting": "GR", "result": "≤ 100", "unit": "nM"}, {"measurement": "Relative Maximum Response to Mifepristone", "setting": "AR", "result": "A (A: ≤ 0.4)"}]}, {"compound": "COC(C)(C)C#C[C@]1(O)CC[C@H]2[C@@H]3CCC4=CC(=O)CC[C@@H]4[C@H]3[C@@H](c3ccc(N(C)C(C)C)cc3)C[C@@]21C", "note": "[Compound 4, (8R,9S,10R,11S,13S,14S,17S)-17-Hydroxy-11-(4-(isopropyl(methyl)amino)phenyl)-17-(3-methoxy-3-methylbut-1-yn-1-yl)-13-methyl-1,2,6,7,8,9,10,11,12,13,14,15,16,17-tetradecahydro-3H-cyclopenta[a]phenanthren-3-one]", "values": [{"measurement": "IC50", "setting": "GR", "result": "≤ 100", "unit": "nM"}, {"measurement": "Relative Maximum Response to Mifepristone", "setting": "AR", "result": "A (A: ≤ 0.4)"}]}, {"compound": "CCC(C)(C)C#C[C@]1(O)CC[C@H]2[C@@H]3CCC4=CC(=O)CC[C@@H]4[C@H]3[C@@H](c3ccc(N(C)C)cc3)C[C@@]21C", "note": "[Compound 6, (8R,9S,10R,11S,13S,14S,17S)-11-(4-(Dimethylamino)phenyl)-17-(3,3-dimethylpent-1-yn-1-yl)-17-hydroxy-13-methyl-1,2,6,7,8,9,10,11,12,13,14,15,16,17-tetradecahydro-3H-cyclopenta[a]phenanthren-3-one]", "values": [{"measurement": "IC50", "setting": "GR", "result": "≤ 100", "unit": "nM"}, {"measurement": "Relative Maximum Response to Mifepristone", "setting": "AR", "result": "A (A: ≤ 0.4)"}]}, {"compound": "CC(C)(C)C#C[C@]1(O)CC[C@H]2[C@@H]3CCC4=CC(=O)CC[C@@H]4[C@H]3[C@@H](c3ccc(N4CCOCC4)cc3)C[C@@]21C", "note": "[Compound 7, (8R,9S,10R,11S,13S,14S,17S)-17-(3,3-Dimethylbut-1-yn-1-yl)-17-hydroxy-13-methyl-11-(4-morpholinophenyl)-1,2,6,7,8,9,10,11,12,13,14,15,16,17-tetradecahydro-3H-cyclopenta[a]phenanthren-3-one]", "values": [{"measurement": "IC50", "setting": "GR", "result": "≤ 100", "unit": "nM"}, {"measurement": "Relative Maximum Response to Mifepristone", "setting": "AR", "result": "A (A: ≤ 0.4)"}]}, {"compound": "CC(C)Nc1ccc([C@H]2C[C@@]3(C)[C@@H](CC[C@@]3(O)C#CC(C)(C)C)[C@@H]3CCC4=CC(=O)CC[C@@H]4[C@H]32)cc1", "note": "[Compound 10, (8R,9S,10R,11S,13S,14S,17S)-17-(3,3-Dimethylbut-1-yn-1-yl)-17-hydroxy-11-(4-(isopropylamino)phenyl)-13-methyl-1,2,6,7,8,9,10,11,12,13,14,15,16,17-tetradecahydro-3H-cyclopenta[a]phenanthren-3-one]", "values": [{"measurement": "IC50", "setting": "GR", "result": "≤ 100", "unit": "nM"}, {"measurement": "Relative Maximum Response to Mifepristone", "setting": "AR", "result": "A (A: ≤ 0.4)"}]}, {"compound": "CN(c1ccc([C@H]2C[C@@]3(C)[C@@H](CC[C@@]3(O)C#CC(C)(C)C)[C@@H]3CCC4=CC(=O)CC[C@@H]4[C@H]32)cc1)C(C)(C)C", "note": "[Compound 11, (8R,9S,10R,11S,13S,14S,17S)-11-(4-(tert-Butyl(methyl)amino)phenyl)-17-(3,3-dimethylbut-1-yn-1-yl)-17-hydroxy-13-methyl-1,2,6,7,8,9,10,11,12,13,14,15,16,17-tetradecahydro-3H-cyclopenta[a]phenanthren-3-one]", "values": [{"measurement": "IC50", "setting": "GR", "result": "≤ 100", "unit": "nM"}, {"measurement": "Relative Maximum Response to Mifepristone", "setting": "AR", "result": "A (A: ≤ 0.4)"}]}, {"compound": "CC(C)Nc1ccc([C@H]2C[C@@]3(C)[C@@H](CC[C@@]3(O)C#CC(C)(C)C)[C@@H]3CCC4=CC(=O)CC[C@@H]4[C@H]32)cc1F", "note": "[Compound 14, (8R,9S,10R,11S,13S,14S,17S)-17-(3,3-dimethylbut-1-yn-1-yl)-11-(3-fluoro-4-(isopropylamino)phenyl)-17-hydroxy-13-methyl-1,2,6,7,8,9,10,11,12,13,14,15,16,17-tetradecahydro-3H-cyclopenta[a]phenanthren-3-one]", "values": [{"measurement": "IC50", "setting": "GR", "result": "> 100", "unit": "nM"}, {"measurement": "Relative Maximum Response to Mifepristone", "setting": "AR", "result": "A (A: ≤ 0.4)"}]}, {"compound": "COCC#C[C@]1(O)CC[C@H]2[C@@H]3CCC4=CC(=O)CC[C@]4(C)[C@H]3[C@@H](c3ccc(N(C)C)cc3)C[C@@]21C", "note": "[Compound 17, (8S,9R,10R,11S,13S,14S,17S)-11-(4-(Dimethylamino)phenyl)-17-hydroxy-17-(3-methoxyprop-1-yn-1-yl)-10,13-dimethyl-1,2,6,7,8,9,10,11,12,13,14,15,16,17-tetradecahydro-3H-cyclopenta[a]phenanthren-3-one]", "values": [{"measurement": "IC50", "setting": "GR", "result": "> 100", "unit": "nM"}, {"measurement": "Relative Maximum Response to Mifepristone", "setting": "AR", "result": "A (A: ≤ 0.4)"}]}, {"compound": "CC(C)Nc1ccc([C@H]2C[C@@]3(C)[C@@H](CC[C@@]3(O)C#CC3CC3)[C@@H]3CCC4=CC(=O)CC[C@]4(C)[C@H]32)cc1", "note": "[Compound 18]", "values": [{"measurement": "IC50", "setting": "GR", "result": "≤ 100", "unit": "nM"}, {"measurement": "Relative Maximum Response to Mifepristone", "setting": "AR", "result": "A (A: ≤ 0.4)"}]}, {"compound": "CC#C[C@]1(O)CC[C@H]2[C@@H]3CCC4=CC(=O)CC[C@]4(C)[C@H]3[C@@H](c3ccc(N(C)C(C)C)cc3)C[C@@]21C", "note": "[Compound 19]", "values": [{"measurement": "IC50", "setting": "GR", "result": "> 100", "unit": "nM"}, {"measurement": "Relative Maximum Response to Mifepristone", "setting": "AR", "result": "A (A: ≤ 0.4)"}]}, {"compound": "CN1CCN(c2ccc([C@H]3C[C@@]4(C)[C@@H](CC[C@@]4(O)C#CC(C)(C)C)[C@@H]4CCC5=CC(=O)CC[C@@H]5[C@H]43)cc2)CC1", "note": "[Compound 20]", "values": [{"measurement": "IC50", "setting": "GR", "result": "≤ 100", "unit": "nM"}, {"measurement": "Relative Maximum Response to Mifepristone", "setting": "AR", "result": "A (A: ≤ 0.4)"}]}, {"compound": "CC(C)N(C)c1ccc([C@H]2C[C@@]3(C)[C@@H](CC[C@@]3(O)C#CC3CC3)[C@@H]3CCC4=CC(=O)CC[C@]4(C)[C@H]32)cc1", "note": "[Compound 21, (8S,9R,10R,11S,13S,14S,17S)-17-(Cyclopropylethynyl)-17-hydroxy-11-(4-(isopropyl(methyl)amino)phenyl)-10,13-dimethyl-1,2,6,7,8,9,10,11,12,13,14,15,16,17-tetradecahydro-3H-cyclopenta[a]phenanthren-3-one]", "values": [{"measurement": "IC50", "setting": "GR", "result": "≤ 100", "unit": "nM"}, {"measurement": "Relative Maximum Response to Mifepristone", "setting": "AR", "result": "A (A: ≤ 0.4)"}]}, {"compound": "CC(C)(C)C#C[C@]1(O)CC[C@H]2[C@@H]3CCC4=CC(=O)CC[C@@H]4[C@H]3[C@@H](c3ccc(N4CCS(=O)(=O)CC4)cc3)C[C@@]21C", "note": "[Compound 22]", "values": [{"measurement": "IC50", "setting": "GR", "result": "≤ 100", "unit": "nM"}, {"measurement": "Relative Maximum Response to Mifepristone", "setting": "AR", "result": "A (A: ≤ 0.4)"}]}, {"compound": "CC(C)(C)C#C[C@]1(O)CC[C@H]2[C@@H]3CCC4=CC(=O)CC[C@@H]4[C@H]3[C@@H](c3ccc(N4CCN(C(=O)OC(C)(C)C)CC4)cc3)C[C@@]21C", "note": "[Compound 25]", "values": [{"measurement": "IC50", "setting": "GR", "result": "≤ 100", "unit": "nM"}, {"measurement": "Relative Maximum Response to Mifepristone", "setting": "AR", "result": "A (A: ≤ 0.4)"}]}, {"compound": "CC#C[C@]1(O)CC[C@H]2[C@@H]3CCC4=CC(=O)CC[C@]4(C)[C@H]3[C@@H](c3ccc(N(C)C)c(F)c3)C[C@@]21C", "note": "[Compound 32]", "values": [{"measurement": "IC50", "setting": "GR", "result": "> 100", "unit": "nM"}, {"measurement": "Relative Maximum Response to Mifepristone", "setting": "AR", "result": "A (A: ≤ 0.4)"}]}]}
